Measured values as given in ChEMBL document CHEMBL1201862, “PubChem BioAssay data set” (2004).
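Five compound concentrations were applied to cells in 96-well plates for 48 hours; endpoints were derived by simple linear interpolation of the resulting dose-response curve. GI50 = concentration required for 50% inhibition of growth.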 The source made the active and inactive calls. No stated cut-off is given here; in the data, active = GI50 up to about 1.1 µM and inactive = higher.

Legend:
Assay in all cases: inhibition of tumour cell growth, NCI panel, 48 h
[1] = test system: SK-OV-3
[2] = test system: SF-268
[3] = test system: U-251
[4] = test system: UO-31
[5] = test system: MDA-MB-435
[6] = test system: SK-MEL-2
[7] = test system: MOLT-4
[8] = test system: IGROV-1
[9] = test system: HCC 2998
[10] = test system: SK-MEL-5
[11] = test system: OVCAR-8
[12] = test system: UACC-257
[13] = test system: A498
[14] = test system: RPMI-8226
[15] = test system: DU-145
[16] = test system: LOX IMVI
[17] = test system: 786-0
[18] = test system: HCT-15
[19] = test system: MDA-MB-231
[20] = test system: K562
[21] = test system: NCI-H460
[22] = test system: OVCAR-4
[23] = test system: SR
[24] = test system: HT-29
[25] = test system: CAKI-1
[26] = test system: SNB-19
[27] = test system: UACC-62
[28] = test system: SF-539
[29] = test system: OVCAR-3
[30] = test system: HOP-62
[31] = test system: MCF7
[32] = test system: SF-295
[33] = test system: COLO 205
[34] = test system: NCI-H23
[35] = test system: MDA-N
[36] = test system: HCT-116
[37] = test system: KM12
[38] = test system: T47D
[39] = test system: SN12C
[40] = test system: BT-549
[41] = test system: NCI-H226
[42] = test system: Hs-578T
[43] = test system: SNB-75
[44] = test system: NCI-H522
[45] = test system: HOP-92
[46] = test system: RXF 393
[47] = test system: SK-MEL-28
[48] = test system: SW-620
[49] = test system: OVCAR-5
[50] = test system: ACHN
[51] = test system: NCI/ADR-RES
[52] = test system: M14
[53] = test system: A549
[54] = test system: TK-10
[55] = test system: PC-3
[56] = test system: Malme-3M
[57] = test system: CCRF-CEM
[58] = test system: EKVX

**Q.** What does the source list for `Nc1cc2c3c(cccc3c1)C(=O)N(c1ccc(OCCN3CCCC3)cc1)C2=O`?
**A.** GI50 [1]: 1.61 µM (inactive); GI50 [2]: 21.3 µM (inactive); GI50 [3]: 25.6 µM (inactive); GI50 [4]: 15.1 µM (inactive); GI50 [5]: 18.7 µM (inactive); GI50 [6]: 19.4 µM (inactive); GI50 [7]: 18.5 µM (inactive); GI50 [8]: 16.3 µM (inactive); GI50 [9]: 17.5 µM (inactive); GI50 [10]: 18.7 µM (inactive); GI50 [11]: 15.9 µM (inactive); GI50 [12]: 16.2 µM (inactive); GI50 [13]: 36.5 µM (inactive); GI50 [14]: 22.4 µM (inactive); GI50 [15]: 27.4 µM (inactive); GI50 [16]: 17 µM (inactive); GI50 [17]: 15.2 µM (inactive); GI50 [18]: 13.8 µM; GI50 [19]: 24.8 µM (inactive); GI50 [20]: 14.5 µM (inactive); GI50 [21]: 11.5 µM (inactive); GI50 [22]: 17.1 µM (inactive); GI50 [23]: 17.9 µM (inactive); GI50 [24]: 13.5 µM (inactive); GI50 [25]: 45.3 µM (inactive); GI50 [26]: 17.2 µM (inactive); GI50 [27]: 16.6 µM (inactive); GI50 [28]: 13.3 µM (inactive); GI50 [29]: 16 µM (inactive); GI50 [30]: 15.9 µM (inactive); GI50 [31]: 17.3 µM (inactive); GI50 [32]: 13.5 µM (inactive); GI50 [33]: 14.1 µM (inactive); GI50 [34]: 14.4 µM (inactive); GI50 [35]: 16.6 µM (inactive); GI50 [36]: 14.7 µM (inactive); GI50 [37]: 16.1 µM (inactive); GI50 [38]: 21.2 µM (inactive); GI50 [39]: 21.8 µM (inactive); GI50 [40]: 15.8 µM (inactive); GI50 [41]: 14.5 µM (inactive); GI50 [42]: 18.7 µM (inactive); GI50 [43]: 3.94 µM (inactive); GI50 [44]: 16 µM (inactive); GI50 [45]: 17.8 µM (inactive); GI50 [46]: 14.2 µM (inactive); GI50 [47]: 20.3 µM (inactive); GI50 [48]: 29.4 µM (inactive); GI50 [49]: 21.1 µM (inactive); GI50 [50]: 13.5 µM (inactive); GI50 [51]: 23.9 µM (inactive); GI50 [52]: 20.7 µM (inactive); GI50 [53]: 16.2 µM (inactive); GI50 [54]: 17.5 µM (inactive); GI50 [55]: 21.4 µM (inactive); GI50 [56]: 17.7 µM (inactive); GI50 [57]: 23.3 µM (inactive); GI50 [58]: 18.4 µM (inactive)
